For series [1] the following is noted: background statement; cited from earlier work.
Series [2] is described as follows: solubility of the crystal form. The class given is physicochemical. The note with it: compared to prior known forms of the API.
Series [3] is described as follows: bioavailability of the crystal form. The class given is in vivo. The following applies: compared to prior known forms of the API.

Each structure is given as a SMILES string.

For `CC(=O)NC[C@H]1CN(c2ccc(N3Cc4cn(C)nc4C3)c(F)c2)C(=O)O1` [N-[[(5S)-3-[4-(2,6-dihydro-2-methylpyrrolo[3,4-c]pyrazol-5(4H)-yl)-3-fluorophenyl]-2-oxo-5-oxazolidinyl]methyl]acetamide], in series [1], the bioavailability in humans result is “poor”.

As for `CC(=O)NC[C@H]1CN(c2ccc(N3Cc4cn(C)nc4C3)c(F)c2)C(=O)O1.O=C(O)CC(=O)O` [Form α crystal], the solubility result in series [2] was “improved”. The bioavailability result in series [3] is “improved”.
